What is called Kd is the concentration at which binding is half-saturated.

Where a chain is given by its changes, count along the chain named.

This passage reports Kd results from paper PMC9098912, “Molecular basis for inhibiting human glucose transporters by exofacial inhibitors” (Nature Communications, 2022).

Common to all, as to assay: MST binding assay, GLUT3 variant
Common to all, as to settings: read-out: Kd of SA47

For assay [1], the target named is T1, GLUT3 F289A (Homo sapiens, UniProt P11169, F289A/N43T).
T1 construct: His10 (N); made in house; host or cells: Sf9 insect cells (baculovirus)
T1 sequence (P11169 1-496 N43T/F289A): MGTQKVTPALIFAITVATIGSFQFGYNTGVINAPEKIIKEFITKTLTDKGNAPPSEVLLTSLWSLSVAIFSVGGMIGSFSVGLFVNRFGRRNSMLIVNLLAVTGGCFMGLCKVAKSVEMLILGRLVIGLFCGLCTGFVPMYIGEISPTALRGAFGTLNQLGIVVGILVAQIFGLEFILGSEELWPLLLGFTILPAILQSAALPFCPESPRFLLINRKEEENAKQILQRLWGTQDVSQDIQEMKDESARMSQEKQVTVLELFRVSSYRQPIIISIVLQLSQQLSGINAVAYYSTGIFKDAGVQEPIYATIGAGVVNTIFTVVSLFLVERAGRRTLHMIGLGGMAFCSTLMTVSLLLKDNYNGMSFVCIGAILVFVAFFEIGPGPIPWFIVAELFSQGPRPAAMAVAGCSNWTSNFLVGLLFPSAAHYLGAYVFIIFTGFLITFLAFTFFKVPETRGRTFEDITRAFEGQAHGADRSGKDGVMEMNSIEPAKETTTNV
How it is done:
(§1) All mutants were generated by standard PCR-based strategy.
(§2) Inhibitors with serial dilutions were mixed with indicated protein. […] MST analyses were conducted on a Monolith NT. […] The MST data was analyzed by Monolith NT.115.

Assay [2] addresses T2, GLUT3 N315A (Homo sapiens, UniProt P11169, N315A/N43T).
T2 construct: His10 (N); made in house; host or cells: Sf9 insect cells (baculovirus)
T2 sequence (P11169 1-496 N43T/N315A): T1 sequence (P11169 1-496 N43T/F289A) with A289F, N315A
How it is done: as §1, §2

In assay [3] the target is T3, GLUT3 N413A (Homo sapiens, UniProt P11169, N413A/N43T).
T3 construct: His10 (N); made in house; host or cells: Sf9 insect cells (baculovirus)
T3 sequence (P11169 1-496 N43T/N413A): T1 sequence (P11169 1-496 N43T/F289A) with A289F, N413A
The method, then:
as §1, §2

The target in assay [4] is T4, GLUT3 Q159A (Homo sapiens, UniProt P11169, N43T/Q159A).
T4 construct: His10 (N); made in house; host or cells: Sf9 insect cells (baculovirus)
T4 sequence (P11169 1-496 N43T/Q159A): T1 sequence (P11169 1-496 N43T/F289A) with Q159A, A289F
How it is done:
as §1, §2

Assay [5] deals with T5, GLUT3 W386A (Homo sapiens, UniProt P11169, N43T/W386A).
T5 construct: His10 (N); made in house; host or cells: Sf9 insect cells (baculovirus)
T5 sequence (P11169 1-496 N43T/W386A): T1 sequence (P11169 1-496 N43T/F289A) with A289F, W386A
How it is done: as §1, §2

In the case of `COC(=O)CCNCc1ccccc1-n1ncc2c(N3CCN(c4cc(F)ccc4OC)CC3)ncnc21` [SA47], the Kd stood at 0.164 ± 0.067 µM in assay [1]; 9.5 ± 2.2 µM in assay [2]; 0.81 ± 0.214 µM in assay [3]; 4.1 ± 0.8 µM in assay [4]; 30.3 ± 10.7 µM in assay [5].
